We go through 24 molecules from patent US10144742B2 (Millennium Pharmaceuticals, Inc., priority 2014, dated 2018).

In one test the test system is PC3 cells. Briefly: PC3 growth inhibition (Cell-titer glo, 72 hours). Type of test: cell-based. Particulars: Homo sapiens, PC-3; compound concentration 1.667 μM; PC3 cells, 72 hours, Cell-titer glo; read-out: Percent Inhibition (PC3 growth inhibition). A digest of the protocol:
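Compounds in AIM serum-free medium were applied for 72 h at 37 °C, 5% CO2 to PC3 cells plated overnight from RPMI1640 culture. Luminescence after 10 min CellTiter-Glo, normalised to DMSO, gave % viability at 1 μM or 1.667 μM, or GI50/LD50.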

The next test deals with hNAMPT protein (Homo sapiens (Human), UniProt P43490). Briefly: NAMPT enzyme assay (TR-FRET/HTRF, BodiPY ligand, anti 6His-Tb). Type of test: binding. Particulars: for inhibition at 1 µM: NAMPT inhibition at compound concentration 1 μM, read-out: Percent Inhibition; for IC50: NAMPT inhibition, IC50 range class, read-out: IC50. A digest of the protocol:
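Compound or DMSO was incubated for 1 h at room temperature, protected from light, with BodiPY ligand and hNAMPT labelled by terbium anti-6His antibody. The 520 nm to 486 nm emission ratio after 320 nm excitation gave inhibition versus vehicle, from which concentration-response curves yielded IC50.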
(In TR-FRET formats the signal depends on donor and acceptor labels being close together.)

Chain of hNAMPT protein (P43490 whole entry): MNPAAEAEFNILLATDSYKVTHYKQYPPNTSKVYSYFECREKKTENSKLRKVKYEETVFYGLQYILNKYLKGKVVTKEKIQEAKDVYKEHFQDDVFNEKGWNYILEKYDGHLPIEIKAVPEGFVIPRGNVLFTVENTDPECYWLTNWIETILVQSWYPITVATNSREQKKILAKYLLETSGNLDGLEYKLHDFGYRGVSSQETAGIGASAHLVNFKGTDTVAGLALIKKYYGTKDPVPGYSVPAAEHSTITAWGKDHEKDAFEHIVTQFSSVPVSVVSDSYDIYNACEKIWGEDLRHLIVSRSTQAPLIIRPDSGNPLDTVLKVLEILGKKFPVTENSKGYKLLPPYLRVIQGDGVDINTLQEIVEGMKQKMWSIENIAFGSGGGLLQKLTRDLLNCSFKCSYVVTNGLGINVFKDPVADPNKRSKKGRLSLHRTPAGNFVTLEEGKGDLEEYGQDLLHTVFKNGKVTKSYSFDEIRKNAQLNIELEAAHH

In the case of `O=C(NCCCc1ncc[nH]1)c1ccc2nc(-c3ccc(F)cc3)c(-c3cc(F)ccc3Cl)nc2c1` [Compound I-399, 3-(2-chloro-5-fluorophenyl)-2-(4-fluorophenyl)-N-[3-(1H-imidazol-2-yl)propyl]quinoxaline-6-carboxamide], the inhibition at 1.667 µM in the test on PC3 cells was 1%. Besides, at hNAMPT protein, the inhibition at 1 µM was 95% and the IC50 was less than 100 nM.

As to `O=C(NCCCc1ncc[nH]1)c1ccc2nc(OC3CCCC3)c(-c3ccc(F)cc3)nc2c1` [Compound I-400, 2-(cyclopentyloxy)-3-(4-fluorophenyl)-N-[3-(1H-imidazol-2-yl)propyl]quinoxaline-6-carboxamide], the inhibition at 1.667 µM in the test with PC3 cells was 2%. Moreover, at hNAMPT protein, the inhibition at 1 µM worked out at 97% and the IC50 is less than 100 nM.

As for `CS(=O)(=O)CCOc1nc2ccc(C(=O)NCCCc3ncc[nH]3)cc2nc1-c1ccc(F)cc1` [Compound I-401, 3-(4-fluorophenyl)-N-[3-(1H-imidazol-2-yl)propyl]-2-[2-(methylsulfonyl)ethoxy]quinoxaline-6-carboxamide], in the test with PC3 cells, the inhibition at 1.667 µM stood at 99%. At hNAMPT protein, the inhibition at 1 µM is 69% and the IC50 is 100 to 500 nM.

With `CCOc1nc2ccc(C(=O)NCCCc3ncc[nH]3)cc2nc1-c1ccc(Cl)cc1` [Compound I-402, 3-(4-chlorophenyl)-2-ethoxy-N-[3-(1H-imidazol-2-yl)propyl]quinoxaline-6-carboxamide], in the test with PC3 cells, the inhibition at 1.667 µM worked out at 2%. Besides, on hNAMPT protein, the inhibition at 1 µM was 97% and the IC50 is less than 100 nM.

Turning to `CC(C)Oc1nc2ccc(C(=O)NCc3ccc4nccn4c3)cc2nc1-c1ccc(Cl)s1` [Compound I-403, 3-(5-chloro-2-thienyl)-N-(imidazo[1,2-a]pyridin-6-ylmethyl)-2-isopropoxyquinoxaline-6-carboxamide], in the test on PC3 cells, the inhibition at 1.667 µM stood at 0%. Further, on hNAMPT protein, the inhibition at 1 µM worked out at 89% and the IC50 was in the range of 100 to 500 nM.

Take `O=C(NCCCc1ncc[nH]1)c1ccc2nc(OC3CC4(CCN4)C3)c(-c3ccc(F)cc3)nc2c1` (stereo not drawn) [Compound I-404, 2-(1-azaspiro[3.3]hept-6-yloxy)-3-(4-fluorophenyl)-N-[3-(1H-imidazol-2-yl)propyl]quinoxaline-6-carboxamide]: in the test with PC3 cells, the inhibition at 1.667 µM was 1%. Besides, on hNAMPT protein, the inhibition at 1 µM is greater than 99% and the IC50 is less than 100 nM.

With `O=C(NCCCc1ncc[nH]1)c1ccc2nc(CN3CCOCC3)c(-c3ccc(F)cc3)nc2c1` [Compound I-405, 3-(4-fluorophenyl)-N-[3-(1H-imidazol-2-yl)propyl]-2-(morpholin-4-ylmethyl)quinoxaline-6-carboxamide], the inhibition at 1.667 µM in the test with PC3 cells is 3%. For the same molecule, at hNAMPT protein, the inhibition at 1 µM was determined as 72% and the IC50 fell in the range of 100 to 500 nM.

In the case of `O=C(NCCCc1ncc[nH]1)c1ccc2nc(OCC3CCOCC3)c(-c3ccc(F)cc3)nc2c1` [Compound I-406, 3-(4-fluorophenyl)-N-[3-(1H-imidazol-2-yl)propyl]-2-(tetrahydro-2H-pyran-4-ylmethoxy)quinoxaline-6-carboxamide], in the test on PC3 cells, the inhibition at 1.667 µM came out at 2%. Besides, on hNAMPT protein, the inhibition at 1 µM was greater than 99% and the IC50 was less than 100 nM.

Consider `N#CC1(COc2nc3ccc(C(=O)NCCCc4ncc[nH]4)cc3nc2-c2ccc(F)cc2)CCC1` [Compound I-407, 2-[(1-cyanocyclobutyl)methoxy]-3-(4-fluorophenyl)-N-[3-(1H-imidazol-2-yl)propyl]quinoxaline-6-carboxamide], for which the inhibition at 1.667 µM in the test on PC3 cells was determined as 2%. On hNAMPT protein, the inhibition at 1 µM is greater than 99% and the IC50 was less than 100 nM.

In the case of `O=C(NCc1cn2cccnc2n1)c1ccc2nc(-c3ccc(F)cc3)c(-c3ccc(F)cc3)nc2c1` [Compound I-408, 2,3-bis(4-fluorophenyl)-N-(imidazo[1,2-a]pyrimidin-2-ylmethyl)quinoxaline-6-carboxamide], in the test with PC3 cells, the inhibition at 1.667 µM was greater than 99%. Further, at hNAMPT protein, the inhibition at 1 µM was 85% and the IC50 fell in the range of 100 to 500 nM.

Turning to `O=C(NCCCc1ncc[nH]1)c1ccc2nc(OCc3cccnc3)c(-c3ccc(F)cc3)nc2c1` [Compound I-409, 3-(4-fluorophenyl)-N-[3-(1H-imidazol-2-yl)propyl]-2-(pyridin-3-ylmethoxy)quinoxaline-6-carboxamide], the inhibition at 1.667 µM in the test on PC3 cells was found to be 2%. Further, on hNAMPT protein, the inhibition at 1 µM amounted to 98% and the IC50 was less than 100 nM.

Consider `O=C(NCCCc1ncc[nH]1)c1ccc2nc(-c3ccc(F)cc3)c(-c3cc(Cl)cnc3F)nc2c1` [Compound I-410, 3-(5-chloro-2-fluoropyridin-3-yl)-2-(4-fluorophenyl)-N-[3-(1H-imidazol-2-yl)propyl]quinoxaline-6-carboxamide], for which, in the test on PC3 cells, the inhibition at 1.667 µM was 2%. In addition, on hNAMPT protein, the inhibition at 1 µM came to 98% and the IC50 was in the range of 100 to 500 nM.

With `COCC(COC)Oc1nc2ccc(C(=O)NCCCc3ncc[nH]3)cc2nc1-c1ccc(F)cc1` [Compound I-411, 2-[(1,3-dimethoxypropan-2-yl)oxy]-3-(4-fluorophenyl)-N-[3-(1H-imidazol-2-yl)propyl]quinoxaline-6-carboxamide], the inhibition at 1.667 µM in the test on PC3 cells was 2%. In addition, on hNAMPT protein, the inhibition at 1 µM was 97% and the IC50 is 100 to 500 nM.

Turning to `O=C(NCCCc1ncc[nH]1)c1ccc2nc(-c3ccc(F)cc3)c(-c3cc4ccccc4s3)nc2c1` [Compound I-412, 3-(1-benzothiophen-2-yl)-2-(4-fluorophenyl)-N-[3-(1H-imidazol-2-yl)propyl]quinoxaline-6-carboxamide], the inhibition at 1.667 µM in the test with PC3 cells is 6%. Also, at hNAMPT protein, the inhibition at 1 µM turned out to be 96% and the IC50 lay in the range of 100 to 500 nM.

`Cc1nccn1-c1nc2ccc(C(=O)NCCCc3ncc[nH]3)cc2nc1-c1ccc(F)cc1` [Compound I-413, 3-(4-fluorophenyl)-N-[3-(1H-imidazol-2-yl)propyl]-2-(2-methyl-1H-imidazol-1-yl)quinoxaline-6-carboxamide]: in the test with PC3 cells, the inhibition at 1.667 µM was determined as 3%. Also, at hNAMPT protein, the inhibition at 1 µM was found to be 80% and the IC50 lay in the range of 100 to 500 nM.

As to `CC(C)Oc1nc2ccc(C(=O)NCCCc3ncc[nH]3)cc2nc1-c1cc(C#N)ccc1F` [Compound I-414, 3-(5-cyano-2-fluorophenyl)-N-[3-(1H-imidazol-2-yl)propyl]-2-isopropoxyquinoxaline-6-carboxamide], the inhibition at 1.667 µM with PC3 cells worked out at 1%. Moreover, on hNAMPT protein, the inhibition at 1 µM worked out at 95% and the IC50 was less than 100 nM.

Consider `COc1ccc(-c2nc3cc(C(=O)NCCCc4ncc[nH]4)ccc3nc2-c2ccc(F)cc2)c(F)c1` [Compound I-415, 3-(2-fluoro-4-methoxyphenyl)-2-(4-fluorophenyl)-N-[3-(1H-imidazol-2-yl)propyl]quinoxaline-6-carboxamide], for which, in the test on PC3 cells, the inhibition at 1.667 µM amounted to 2%. On hNAMPT protein, the inhibition at 1 µM came to 75% and the IC50 fell in the range of 100 to 500 nM.

In the case of `C#Cc1ccc(-c2nc3cc(C(=O)NCCCc4ncc[nH]4)ccc3nc2-c2ccc(F)cc2)cc1` [Compound I-416, 3-(4-ethynylphenyl)-2-(4-fluorophenyl)-N-[3-(1H-imidazol-2-yl)propyl]quinoxaline-6-carboxamide], the inhibition at 1.667 µM in the test with PC3 cells turned out to be 2%. At hNAMPT protein, the inhibition at 1 µM turned out to be 76% and the IC50 lay within 100 to 500 nM.

As to `O=C(NCCCc1ncc[nH]1)c1ccc2nc(-c3ccc(F)cc3)c(-c3ccc4nccn4c3)nc2c1` [Compound I-417, 2-(4-fluorophenyl)-N-[3-(1H-imidazol-2-yl)propyl]-3-(imidazo[1,2-a]pyridin-6-yl)quinoxaline-6-carboxamide], the inhibition at 1.667 µM with PC3 cells was 2%. In addition, on hNAMPT protein, the inhibition at 1 µM was 81% and the IC50 is 100 to 500 nM.

For the molecule `O=C(NCCCc1ncc[nH]1)c1ccc2nc(-n3cncn3)c(-c3ccc(F)cc3)nc2c1` [Compound I-418], in the test with PC3 cells, the inhibition at 1.667 µM is 3%. Also, on hNAMPT protein, the inhibition at 1 µM stood at 60% and the IC50 is 500 to 1000 nM.

In the case of `Nc1ccc(CCCNC(=O)c2ccc3nc(-c4ccc(F)cc4)c(-c4ccc(F)cc4)nc3c2)cn1` [Compound I-419, N-[3-(6-aminopyridin-3-yl)propyl]-2,3-bis(4-fluorophenyl)quinoxaline-6-carboxamide], in the test with PC3 cells, the inhibition at 1.667 µM turned out to be 3%. Moreover, on hNAMPT protein, the inhibition at 1 µM worked out at 52% and the IC50 was in the range of 500 to 1000 nM.

For the molecule `O=C(NCCCc1ncc[nH]1)c1ccc2nc(OCCc3ccccc3)c(-c3ccc(F)cc3)nc2c1` [Compound I-420, 3-(4-fluorophenyl)-N-[3-(1H-imidazol-2-yl)propyl]-2-(2-phenylethoxy)quinoxaline-6-carboxamide], the inhibition at 1.667 µM in the test with PC3 cells was 2%. Moreover, at hNAMPT protein, the inhibition at 1 µM is 97% and the IC50 is less than 100 nM.

Regarding `CC(C)Oc1nc2ccc(C(=O)NCCCc3ncc[nH]3)cc2nc1-c1cccc(SC(F)(F)F)c1` [Compound I-421, N-[3-(1H-imidazol-2-yl)propyl]-2-isopropoxy-3-{3-[(trifluoromethyl)sulfanyl]phenyl}quinoxaline-6-carboxamide], the inhibition at 1.667 µM in the test on PC3 cells came out at 1%. On hNAMPT protein, the inhibition at 1 µM was 78% and the IC50 lay in the range of 100 to 500 nM.

In the case of `Cc1cc(-c2nc3cc(C(=O)NCCCc4ncc[nH]4)ccc3nc2-c2ccc(F)cc2)c(C)s1` [Compound I-422, 3-(2,5-dimethyl-3-thienyl)-2-(4-fluorophenyl)-N-[3-(1H-imidazol-2-yl)propyl]quinoxaline-6-carboxamide], the inhibition at 1.667 µM in the test with PC3 cells came out at 3%. At hNAMPT protein, the inhibition at 1 µM amounted to 92% and the IC50 is less than 100 nM.

As a reminder, the inhibition is the relative decrease from the control value, in per cent. Usually IC50 stands for the point on the concentration scale where inhibition reaches its midpoint.
